This note sets out measurements from US11135229B2, “Cat and dog sterilization by estrogenic compounds” (Insigna Inc., priority 2018, dated 2021).

Each structure is given as a SMILES string.

In data set [1] the test system is premature male and female rats. The format is in vivo.
For data set [2] the following is noted: rat, in vivo, sc.
Procedure: Hormonal measurement. Blood was collected from the tail vein or by cardiac puncture. The blood was centrifuged at 2000×g for 10 minutes; then serum was collected and preserved at −20° C. until further analyses. Serum estradiol concentrations were measured by using ELISA kits (DRG EIA4399) with a reportable range of 1.4-200 μg/ml.
A silicone capsule containing 17β-estradiol 3-benzoate (EB, Sigma E8515) was used as a device to elevate blood 17β-estradiol (E2) concentration to a supra-physiological level. Once implanted subcutaneously, the silicone capsule with EB (called eSpay) releases EB for an extended period of time. […] Therefore, EB that contained 300 μg of EB (herein EB300) was made by dissolving 300 μg of EB in 5 μl of sesame oil (Sigma S3547), and it was inserted into a silicone tube (Dow Corning 508-005) that was later closed with silicone sealant (Factor II, Inc. Medical Adhesive A-100). The capsule was kept at room temperature until use. The EB300 capsule was approximately 8 mm long and 2.16 mm in diameter. […]
The efficacy of the EB300 capsule as a device to elevate E2 levels in its recipient was tested after implanting it on the day of birth (post-natal day 0, PND 0). Serum and hypothalami were collected at PND 1, 2, 3, 4, 7, 10, 21, and 30, and E2 concentrations were measured.
Setting [3] is: premature male rats, capsule injected subcutaneously.

Consider `C[C@]12CC[C@@H]3c4ccc(OC(=O)c5ccccc5)cc4CC[C@H]3[C@@H]1CC[C@@H]2O` [EB, 17β-Estradiol 3-benzoate], for which, in data set [1] (premature female rats, capsule injected), the Female reproductive system entry is “preventing the females from undergoing menstrual cycling and from producing ova”. For the same molecule, in data set [1] (setting [3]), the “Sterility of male rats” value is given as “permanently sterile”; the “Testicular testosterone and sperm production” value is on record as “did not produce testosterone or sperm”. For the same molecule, in data set [1] (rat, in vivo), the Death or sickness result is reported as “no subject animal died or exhibited sickness”; the “Immune system, liver and kidney function examination” value is recorded as “no clinical pathology”. In addition, the “Period of sustained, high blood E2 level” value in data set [2] is on record as “about three weeks”.
